Data as given in patent publication US20240262807A1, “COMPOUND USED AS BCR-ABL INHIBITOR” (CHIA TAI TIANQING PHARMACEUTICAL GROUP CO., LTD., priority 2021, published 2024).
pIC50: −log10 of the molar value.

Key:
Format in all cases: cell-based
K562 cells = test: Inhibitory effect of compounds on proliferation of K562 cells (CCK-8); conditions: Homo sapiens, 72 h with compound, CCK-8, 5% serum
Method: K562 cells in logarithmic growth phase and good cell condition were added to a centrifuge tube and centrifuged at 1000 rpm for 5 min in a low speed centrifuge. […] The cells were seeded on a 96-well plate at 100 µL/well using a multi-channel pipette and cultured in a cell incubator at 37° ° C. 5% CO2 and saturated humidity. […] Inhibition rate (%)=(mean value of negative control group−mean value of experimental group)/(mean value of negative control group−mean value of blank group)×100%. A dose-response curve was fitted by four-parameter analysis, with the logarithm of compound concentration serving as abscissa and inhibition rate serving as ordinate, such that IC50 was calculated.

hERG potassium channel = target: T1, hERG potassium channel (Homo sapiens, UniProt Q12809); test: Evaluation of cardiac safety: hERG potassium channel whole-cell patch clamp in HEK-293 cells; conditions: HEK-293 cells over-expressing hERG potassium channel, tail current, room temperature
T1 construct: expressed in transfected cells; host or cells: HEK-293 cells, stably transformed
T1 sequence (Q12809 whole entry): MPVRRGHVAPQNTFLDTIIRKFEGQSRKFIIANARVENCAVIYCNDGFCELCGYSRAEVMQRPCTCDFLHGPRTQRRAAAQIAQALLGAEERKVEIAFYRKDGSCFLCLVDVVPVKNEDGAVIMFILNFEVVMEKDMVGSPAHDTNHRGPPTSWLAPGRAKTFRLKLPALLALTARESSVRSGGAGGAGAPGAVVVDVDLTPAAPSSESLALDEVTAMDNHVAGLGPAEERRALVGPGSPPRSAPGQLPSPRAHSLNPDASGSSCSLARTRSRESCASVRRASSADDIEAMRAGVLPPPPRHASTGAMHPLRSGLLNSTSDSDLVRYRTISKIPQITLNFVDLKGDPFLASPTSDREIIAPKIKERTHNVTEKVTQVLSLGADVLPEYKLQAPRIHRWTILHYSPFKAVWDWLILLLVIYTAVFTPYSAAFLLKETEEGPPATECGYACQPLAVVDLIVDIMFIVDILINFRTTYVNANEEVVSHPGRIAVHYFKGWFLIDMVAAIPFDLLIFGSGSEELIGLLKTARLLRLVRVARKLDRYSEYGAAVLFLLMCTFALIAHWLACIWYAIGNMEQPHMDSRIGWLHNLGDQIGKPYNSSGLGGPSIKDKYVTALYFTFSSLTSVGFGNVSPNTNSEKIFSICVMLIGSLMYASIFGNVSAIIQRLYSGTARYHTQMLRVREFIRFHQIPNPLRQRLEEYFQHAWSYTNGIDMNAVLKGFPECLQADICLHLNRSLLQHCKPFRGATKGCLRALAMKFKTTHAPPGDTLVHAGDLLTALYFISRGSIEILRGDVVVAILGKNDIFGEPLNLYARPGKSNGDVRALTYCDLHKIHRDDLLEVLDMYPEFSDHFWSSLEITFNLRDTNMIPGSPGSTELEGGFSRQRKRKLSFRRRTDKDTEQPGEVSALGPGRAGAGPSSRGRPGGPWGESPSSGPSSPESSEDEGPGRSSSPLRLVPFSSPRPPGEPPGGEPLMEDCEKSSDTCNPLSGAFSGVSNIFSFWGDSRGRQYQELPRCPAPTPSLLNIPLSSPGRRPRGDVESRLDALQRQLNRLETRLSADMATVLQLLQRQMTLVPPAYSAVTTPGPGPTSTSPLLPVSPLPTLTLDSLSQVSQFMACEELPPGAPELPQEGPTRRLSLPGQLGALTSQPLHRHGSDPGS
Method: The cell strains were derived from HEK-293 cells over-expressing hERG potassium channel. The cells were cultured in an incubator at 37° C. 5% CO2. […]
The stably-transformed cells were seeded onto a slide at a cell density of less than 50% and cultured overnight. […] Membrane currents were recorded by using a HEKA EPC-10 patch clamp amplifier and PATCHMASTER acquisition system (HEKA Instruments Inc., D-67466 Lambrecht. Pfalz. Germany) and analyzed and counted by using Origin 8.5 (OriginLab Corporation. Northampton. MA) software and Microsoft Excel (results in Table 4). […]
Channel currents were recorded in the experiments using a whole-cell recording mode. An extracellular fluid (approximately 2 mL per min) was firstly perfused, the process was continuously recorded, and the current was waited for stabilization (current decay (Run-Down) was less than 5% in 5 min); at this point, the tail current peak value was the control current value. Then, the extracellular fluid containing the test drug was perfused, and the process was continuously recorded until the inhibitory effect of the drug on the hERG current reached a stable state; at this point, the tail current peak value was the current value after dosing. […]

[1] = target: T2, Ba/F3-BCR-ABL1-T315I-C3 cells (Homo sapiens, UniProt P00519, T315I, cells depend on it); test: Inhibitory effect of compounds on proliferation of BCR-ABL T315I-transfected Ba/F3 cells (CCK-8); conditions: 72 h with compound, CCK-8, 5% serum, read-out: IC50 (nM) Ba/F3-BCR-ABL1 T315I
T2 construct: fused on or other part: P11274 (Breakpoint cluster region protein)
Method: Ba/F3-BCR-ABL1-T315I-C3 cells in logarithmic growth phase and good cell condition were added to a centrifuge tube and centrifuged at 1000 rpm for 5 min in a low speed centrifuge. The supernatant was discarded, and 5 mL of complete medium (RPMI 1640 basic medium+10% FBS) was added using a pipette for cell resuspension. The cells were counted using a cell counter, diluted with complete medium to a cell density of 6×10^4 cells/mL, and an equivalent amount of RPMI 1640 basic medium was added to adjust the serum concentration to 5% and the cell density to 3×10^4 cells/mL for plate seeding. The cells were seeded on a 96-well plate at 100 μL/well using a multi-channel pipette and cultured in a cell incubator at 37° C. 5% CO2 and saturated humidity. After 24 h incubation, compounds were loaded using a nanoliter pipettor, 8 concentrations (1000 nM, 250 nM, 63 nM, 16 nM, 3.9 nM, 0.98 nM, 0.24 nM, 0.061 nM) were set for each compound, and 2 replicate wells were set for each concentration; cells with no compounds added were taken as a negative control, and a plating medium with no cells added was taken as a blank control. After 72 h. […] Inhibition rate (%)=(mean value of negative control group−mean value of experimental group)/(mean value of negative control group−mean value of blank group)×100%. A dose-response curve was fitted by four-parameter analysis, with the logarithm of compound concentration serving as abscissa and inhibition rate serving as ordinate, such that ICso was calculated.

| IC50 (K562 cells) | GI50 [1] | SMILES | pIC50 (hERG potassium channel) |
| --- | --- | --- | --- |
| 1.2 nM | 0.86 nM | O=C(Nc1ccc(OC(F)(F)Cl)cc1)c1cnc(N2CC(O)C2)c(-c2cc3c([nH]2)C(=O)NC3)c1 [Compound 104] | < 4.52 |
| 1.1 nM | 0.54 nM | O=C(Nc1ccc(OC(F)(F)Cl)cc1)c1cnc(N2CC[C@@H](O)C2)c(-c2cc3c([nH]2)C(=O)NC3)c1 [Compound 106] | < 4.52 |
